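The compound was tested at five concentrations on cells cultured in 96-well plates, with a 48-hour exposure period. TGI: concentration producing complete growth inhibition.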
Each molecule was assayed on COLO 205 colon (assay: growth of human tumour cells (NCI), 48 h).

| SMILES | TGI [µM] |
| --- | --- |
| COC(=O)C1=C(C)NC(C)=C(C(=O)OC)C1c1nc2sccn2c1[N+](=O)[O-] | > 100 |
| Cn1c(COC(=O)Nc2ccccc2)c(COC(=O)Nc2ccccc2)c2ccc3cc(Cl)c(Cl)cc3c21 | 14.5 |
| O=c1c(C(c2ccc(Cl)cc2)c2c(O)c3ccccc3n(-c3ccccc3)c2=O)c(O)c2ccccc2n1-c1ccccc1 | > 100 |

Each molecule was assayed on SF-539 CNS (assay: growth of human tumour cells (NCI), 48 h).

| SMILES | TGI [µM] |
| --- | --- |
| COc1c(C(C)C)cc2c3c1OC(=O)[C@@]31CCCC(C)(C)C1CC2 (some centres not stated) | 44.8 |
| OCc1ccc(C2CC(c3ccco3)=NN2c2ccccc2)o1 (configuration not stated) | > 100 |
| COc1ccc(C2COc3cc(O)c(O)cc3C2)cc1 (configuration not stated) | 136 |
| O=C1/C(=C/c2ccc(Cl)cc2)CSc2ccccc21 | 35.7 |
| CCCCN=C(c1ccccc1)N1CCOCC1 | > 100 |
| CCOC(=O)c1ccc(C)c(N=NN(C)C)c1 | > 100 |
| Cc1ccc(S(=O)(=O)NC(=O)N[C@@H](Cc2cnc[nH]2)C(=O)O)cc1 | > 100 |
| COc1cc2c3c(c1OC)C1(C=CC(=O)C=C1)C[C@H]3N(C)CC2 | > 100 |
| O=NN(CCCl)C(=O)NC1CCC(O)CC1 (configuration not stated) | > 61 |
| CC(=O)NC1c2ccccc2C(C)(C)C12CCC1(CC2)OCCO1 (configuration not stated) | > 100 |
| [N-]=[N+]=NC1=C(c2ccccn2)C(=O)c2cccc3cccc1c23 | > 100 |
| CC1=NNC(=O)C1C(CC(=O)c1c[nH]c2ccccc12)C(=O)O (configuration not stated) | > 100 |
| Cc1ccc(O)c(-c2cscn2)c1 | > 100 |
| O=C(CN(c1ccccc1)c1ccccc1)n1nnc2ccccc21 | > 100 |
| CSc1sc2ccccc2[s+]1 | > 100 |
| COc1cc(OC)c(C2c3cc4c(cc3OC(N3CCCC3)C2C)OCO4)c(OC)c1 (configuration not stated) | 25.9 |
| Cc1ccc(S(=O)(=O)C(C#N)c2nc3ccccc3nc2-n2ccnc2)cc1 (configuration not stated) | > 100 |
| COC(=O)C1=C(C)NC(C)=C(C(=O)OC)C1c1nc2sccn2c1[N+](=O)[O-] | > 100 |
| Cn1c(COC(=O)Nc2ccccc2)c(COC(=O)Nc2ccccc2)c2ccc3cc(Cl)c(Cl)cc3c21 | 44.6 |
| O=c1c(C(c2ccc(Cl)cc2)c2c(O)c3ccccc3n(-c3ccccc3)c2=O)c(O)c2ccccc2n1-c1ccccc1 | > 100 |

Each molecule was assayed on HCT-15 colon (assay: growth of human tumour cells (NCI), 48 h).

| SMILES | TGI [µM] |
| --- | --- |
| COc1c(C(C)C)cc2c3c1OC(=O)[C@@]31CCCC(C)(C)C1CC2 (some centres not stated) | > 100 |
| OCc1ccc(C2CC(c3ccco3)=NN2c2ccccc2)o1 (configuration not stated) | > 100 |
| COc1ccc(C2COc3cc(O)c(O)cc3C2)cc1 (configuration not stated) | 99.3 |
| O=C1/C(=C/c2ccc(Cl)cc2)CSc2ccccc21 | > 100 |
| CCCCN=C(c1ccccc1)N1CCOCC1 | > 100 |
| CCOC(=O)c1ccc(C)c(N=NN(C)C)c1 | > 100 |
| Cc1ccc(S(=O)(=O)NC(=O)N[C@@H](Cc2cnc[nH]2)C(=O)O)cc1 | > 100 |
| COc1cc2c3c(c1OC)C1(C=CC(=O)C=C1)C[C@H]3N(C)CC2 | > 100 |
| O=NN(CCCl)C(=O)NC1CCC(O)CC1 (configuration not stated) | 58.2 |
| CC(=O)NC1c2ccccc2C(C)(C)C12CCC1(CC2)OCCO1 (configuration not stated) | > 100 |
| [N-]=[N+]=NC1=C(c2ccccn2)C(=O)c2cccc3cccc1c23 | > 100 |
| CC1=NNC(=O)C1C(CC(=O)c1c[nH]c2ccccc12)C(=O)O (configuration not stated) | > 100 |
| Cc1ccc(O)c(-c2cscn2)c1 | > 100 |
| CC(C(O)Cc1ccccc1)N(C)N=Nc1ccc([N+](=O)[O-])cc1 (configuration not stated) | 61 |
| O=C(CN(c1ccccc1)c1ccccc1)n1nnc2ccccc21 | > 100 |
| CSc1sc2ccccc2[s+]1 | > 100 |
| COc1cc(OC)c(C2c3cc4c(cc3OC(N3CCCC3)C2C)OCO4)c(OC)c1 (configuration not stated) | 52.3 |
| Cc1ccc(S(=O)(=O)C(C#N)c2nc3ccccc3nc2-n2ccnc2)cc1 (configuration not stated) | > 100 |
| O=C1c2ccccc2C2(c3ccc(Cl)cc3)N[C@H]3CCCC[C@@H]3N12 (some centres not stated) | > 100 |
| COC(=O)C1CCCN1C(=O)C(Cc1cn(S(=O)(=O)c2ccc(C)cc2)cn1)NC(=O)OC(C)(C)C (configuration not stated) | > 100 |
| CC(=O)O[C@]12CCCCCC1C1(O)C(O)CCCC[C@H]12 (some centres not stated) | > 100 |
| COC(=O)C1=C(C)NC(C)=C(C(=O)OC)C1c1nc2sccn2c1[N+](=O)[O-] | > 100 |
| Cn1c(COC(=O)Nc2ccccc2)c(COC(=O)Nc2ccccc2)c2ccc3cc(Cl)c(Cl)cc3c21 | 15 |
| O=c1c(C(c2ccc(Cl)cc2)c2c(O)c3ccccc3n(-c3ccccc3)c2=O)c(O)c2ccccc2n1-c1ccccc1 | > 100 |

The molecules below were run on MCF7 breast (assay: growth of human tumour cells (NCI), 48 h).

| SMILES | TGI [µM] |
| --- | --- |
| COc1ccc(C2COc3cc(O)c(O)cc3C2)cc1 (configuration not stated) | 176 |
| O=C1/C(=C/c2ccc(Cl)cc2)CSc2ccccc21 | 9.35 |
| CCCCN=C(c1ccccc1)N1CCOCC1 | > 100 |
| CC(C)CC(O)P(=O)(O)O (configuration not stated) | > 100 |
| Cc1ccc(S(=O)(=O)NC(=O)N[C@@H](Cc2cnc[nH]2)C(=O)O)cc1 | > 100 |
| O=NN(CCCl)C(=O)NC1CCC(O)CC1 (configuration not stated) | > 100 |
| CC(=O)NC1c2ccccc2C(C)(C)C12CCC1(CC2)OCCO1 (configuration not stated) | > 100 |
| [N-]=[N+]=NC1=C(c2ccccn2)C(=O)c2cccc3cccc1c23 | > 100 |
| Cc1ccc(O)c(-c2cscn2)c1 | > 100 |
| CC(C(O)Cc1ccccc1)N(C)N=Nc1ccc([N+](=O)[O-])cc1 (configuration not stated) | 80.6 |
| COc1cc(OC)c(C2c3cc4c(cc3OC(N3CCCC3)C2C)OCO4)c(OC)c1 (configuration not stated) | 48.1 |
| COC(=O)C1CCCN1C(=O)C(Cc1cn(S(=O)(=O)c2ccc(C)cc2)cn1)NC(=O)OC(C)(C)C (configuration not stated) | > 100 |
| COC(=O)C1=C(C)NC(C)=C(C(=O)OC)C1c1nc2sccn2c1[N+](=O)[O-] | > 100 |
| Cn1c(COC(=O)Nc2ccccc2)c(COC(=O)Nc2ccccc2)c2ccc3cc(Cl)c(Cl)cc3c21 | 10.6 |

Each molecule was assayed on HCC-2998 colon (assay: growth of human tumour cells (NCI), 48 h).

| SMILES | TGI [µM] |
| --- | --- |
| COc1c(C(C)C)cc2c3c1OC(=O)[C@@]31CCCC(C)(C)C1CC2 (some centres not stated) | > 100 |
| COc1ccc(C2COc3cc(O)c(O)cc3C2)cc1 (configuration not stated) | 184 |
| CCOC(=O)c1ccc(C)c(N=NN(C)C)c1 | > 100 |
| CC(C)CC(O)P(=O)(O)O (configuration not stated) | > 100 |
| COc1cc2c3c(c1OC)C1(C=CC(=O)C=C1)C[C@H]3N(C)CC2 | > 100 |
| O=NN(CCCl)C(=O)NC1CCC(O)CC1 (configuration not stated) | > 100 |
| CC(=O)NC1c2ccccc2C(C)(C)C12CCC1(CC2)OCCO1 (configuration not stated) | > 100 |
| [N-]=[N+]=NC1=C(c2ccccn2)C(=O)c2cccc3cccc1c23 | > 100 |
| Cc1ccc(O)c(-c2cscn2)c1 | > 100 |
| CC(C(O)Cc1ccccc1)N(C)N=Nc1ccc([N+](=O)[O-])cc1 (configuration not stated) | 32.2 |
| O=C(CN(c1ccccc1)c1ccccc1)n1nnc2ccccc21 | > 100 |
| CSc1sc2ccccc2[s+]1 | > 100 |
| COc1cc(OC)c(C2c3cc4c(cc3OC(N3CCCC3)C2C)OCO4)c(OC)c1 (configuration not stated) | 21.9 |
| Cc1ccc(S(=O)(=O)C(C#N)c2nc3ccccc3nc2-n2ccnc2)cc1 (configuration not stated) | > 100 |
| COC(=O)C1CCCN1C(=O)C(Cc1cn(S(=O)(=O)c2ccc(C)cc2)cn1)NC(=O)OC(C)(C)C (configuration not stated) | > 100 |
| COC(=O)C1=C(C)NC(C)=C(C(=O)OC)C1c1nc2sccn2c1[N+](=O)[O-] | > 100 |
| Cn1c(COC(=O)Nc2ccccc2)c(COC(=O)Nc2ccccc2)c2ccc3cc(Cl)c(Cl)cc3c21 | 15.8 |
| O=c1c(C(c2ccc(Cl)cc2)c2c(O)c3ccccc3n(-c3ccccc3)c2=O)c(O)c2ccccc2n1-c1ccccc1 | > 100 |

What follows are molecules tested on UO-31 renal (assay: growth of human tumour cells (NCI), 48 h).

| SMILES | TGI [µM] |
| --- | --- |
| COc1c(C(C)C)cc2c3c1OC(=O)[C@@]31CCCC(C)(C)C1CC2 (some centres not stated) | 57.8 |
| OCc1ccc(C2CC(c3ccco3)=NN2c2ccccc2)o1 (configuration not stated) | > 100 |
| COc1ccc(C2COc3cc(O)c(O)cc3C2)cc1 (configuration not stated) | 279 |
| O=C1/C(=C/c2ccc(Cl)cc2)CSc2ccccc21 | 36.1 |
| CCCCN=C(c1ccccc1)N1CCOCC1 | > 100 |
| CCOC(=O)c1ccc(C)c(N=NN(C)C)c1 | > 100 |
| CC(C)CC(O)P(=O)(O)O (configuration not stated) | > 100 |
| Cc1ccc(S(=O)(=O)NC(=O)N[C@@H](Cc2cnc[nH]2)C(=O)O)cc1 | > 100 |
